The values below come from patent US20250115594A1, “ANTIBACTERIAL AGENTS: SOLUBLE SALTS AND AQUEOUS FORMULATIONS OF PYRONINS” (priority 2018, published 2025).

pIC50: −log10 of the molar value. ≈ marks a conversion by molar mass, not a printed value.

Tested on in the first data set: not listed separately
Kind of data set: physchem. The class given is physicochemical.
Conditions: not given
How it is done:
Serial dilutions of test articles were prepared in dimethyl sulfoxide at 100× the final concentration. Test article solutions and blanks were diluted 100× into phosphate-buffered saline (PBS; 0.01 M sodium phosphate, pH 7.4, 137 mM NaCl, and 3 mM KCl) in a 96-well plate and mixed. After 2 h at 37° C., the presence of precipitate was detected by turbidity (absorbance at 540 nm). An absorbance value of greater than “mean+3xSD of the blank” (after subtracting background) was considered an indication of turbidity. The solubility limit was reported as the highest tested concentration with no evidence of turbidity.
With `[2H]C([2H])([2H])OC(=O)N/C=C/CCCc1cc([O-])c(C(=O)/C(C)=C/c2cnc(Oc3ccc(F)cc3)s2)c(=O)o1.[Na+]` [Example 9], the “times more soluble than the corresponding free acid (Example 8)” value is no less than 50 times.

The same data set, now with this note: 37 °C, pH 7.4, aqueous buffer, kinetic from dmso stock.
For orientation: solubility means the concentration that dissolves in the medium under given conditions. The compound `[2H]C([2H])([2H])OC(=O)N/C=C/CCCc1cc(O)c(C(=O)/C(C)=C/c2cnc(Oc3ccc(F)cc3)s2)c(=O)o1` [Example 8] yielded a solubility at 2 h of 0.1 mg/mL (≈ 193 µM).
On the same count and under the same terms, the figure for `[2H]C([2H])([2H])OC(=O)N/C=C/CCCc1cc([O-])c(C(=O)/C(C)=C/c2cnc(Oc3ccc(F)cc3)s2)c(=O)o1.[Na+]` [Example 9] is no less than 5 mg/mL.

Tested on in the next data set: not listed separately
Kind of data set: physchem. The class given is physicochemical.
Conditions: not given
The source holds these as a separate data set. How it is done:
Starting with 0.5-5 mg test compound in a glass vial at room temperature, successive cycles of addition of vehicle, vortexing 15 s, and inspection were performed until all test compound dissolved. Vehicles were: 0.01 M sodium phosphate (pH 7.4); 5% dextrose in 0.01 M sodium phosphate (pH 7.4); and 0.5% carboxymethylcellulose (CMC)/0.5% Tween-80 (pH 8.4).
For `[2H]C([2H])([2H])OC(=O)N/C=C/CCCc1cc([O-])c(C(=O)/C(C)=C/c2cnc(Oc3ccc(F)cc3)s2)c(=O)o1.[Na+]` [Example 9], the “concentration at which it can be formulated” value is no less than 10000 µg/mL.

The data set is the same for the next values; noted with them: pH 7.4, aqueous buffer, thermodynamic from solid.
For `[2H]C([2H])([2H])OC(=O)N/C=C/CCCc1cc(O)c(C(=O)/C(C)=C/c2cnc(Oc3ccc(F)cc3)s2)c(=O)o1` [Example 8], the solubility was less than 0.1 mg/mL.
On the same count and under the same terms, to `[2H]C([2H])([2H])OC(=O)N/C=C/CCCc1cc([O-])c(C(=O)/C(C)=C/c2cnc(Oc3ccc(F)cc3)s2)c(=O)o1.[Na+]` [Example 9] belongs 10 mg/mL.

Staying with this data set, now noted: pH 7.4, saline or isotonic, thermodynamic from solid.
`[2H]C([2H])([2H])OC(=O)N/C=C/CCCc1cc(O)c(C(=O)/C(C)=C/c2cnc(Oc3ccc(F)cc3)s2)c(=O)o1` [Example 8] registered a solubility of less than 0.1 mg/mL.
Compound `[2H]C([2H])([2H])OC(=O)N/C=C/CCCc1cc([O-])c(C(=O)/C(C)=C/c2cnc(Oc3ccc(F)cc3)s2)c(=O)o1.[Na+]` [Example 9] showed a solubility of 5 mg/mL.

The data set is the same for the next values; noted with them: pH 8.4, aqueous with cosolvent or surfactant or cyclodextrin, thermodynamic from solid.
`[2H]C([2H])([2H])OC(=O)N/C=C/CCCc1cc(O)c(C(=O)/C(C)=C/c2cnc(Oc3ccc(F)cc3)s2)c(=O)o1` [Example 8] registered a solubility of less than 0.1 mg/mL.
Still for that read-out and setting: to `[2H]C([2H])([2H])OC(=O)N/C=C/CCCc1cc([O-])c(C(=O)/C(C)=C/c2cnc(Oc3ccc(F)cc3)s2)c(=O)o1.[Na+]` [Example 9] belongs 20 mg/mL.

A further data set concerns the target E. coli RNA polymerase σ70 holoenzyme (Escherichia coli (strain K12), UniProt P0A8T7+P0A8V2). In words: Fluorescence-detected assay of inhibition of Escherichia coli RNA polymerase. The class given is biochemical. The following applies: read-out: RNAP-inhibitory activity E. coli RNAP IC50. How it is done: (§1) Fluorescence-detected RNA polymerase assays with E. coli RNA polymerase were performed by a modification of the procedure of Kuhlman et al., 2004 [Kuhlman, P., Duff, H. & Galant, A. (2004) A fluorescence-based assay for multisubunit DNA-dependent RNA polymerases. Anal. Biochem. 324, 183-190]. Reaction mixtures contained (20 μl): 0-100 nM test salt, 75 nM E. coli RNA polymerase σ^70 holoenzyme, 20 nM 384 bp DNA fragment containing the bacteriophage T4 N25 promoter, 100 μM ATP, 100 μM GTP, 100 μM UTP, 100 μM CTP, 50 mM Tris-HCl, pH 8.0, 100 mM KCl, 10 mM MgCl2, 1 mM DTT, 10 μg/ml bovine serum albumin, and 5.5% glycerol. Reaction components other than DNA and NTPs were pre-incubated for 10 min at 37° C. Reactions were carried out by addition of DNA and incubation for 5 min at 37° C., followed by addition of NTPs and incubation for 60 min at 37° C. DNA was removed by addition of 1 μl 5 mM CaCl2 and 2 U DNaseI (Ambion, Inc.), followed by incubation for 90 min at 37° C. RNA was quantified by addition of 100 μl RiboGreen RNA Quantitation Reagent (Invitrogen, Inc.; 1:500 dilution in Tris-HCl, pH 8.0, 1 mM EDTA), followed by incubation for 10 min at 25° C., followed by measurement of fluorescence intensity [excitation wavelength=485 nm and emission wavelength=535 nm; QuantaMaster QM1 spectrofluorometer (PTI, Inc.)]. IC50 is defined as the concentration of inhibitor resulting in 50% inhibition of RNA polymerase activity.
A word on the pIC50: it is the negative decadic logarithm of the IC50, by convention in mol/L. In the case of `[2H]C([2H])([2H])OC(=O)N/C=C/CCCc1cc(O)c(C(=O)/C(C)=C/c2cnc(Oc3ccc(F)cc3)s2)c(=O)o1` [Example 8], the negative-log IC50 (pIC50) is 8.40.
In the case of `[2H]C([2H])([2H])OC(=O)N/C=C/CCCc1cc([O-])c(C(=O)/C(C)=C/c2cnc(Oc3ccc(F)cc3)s2)c(=O)o1.[K+]` [Example 10], the pIC50 is 8.22.

For the next data set, the target named is M. tuberculosis RNA polymerase (Mycobacterium tuberculosis (strain ATCC 25618 / H37Rv), UniProt P9WGY7+P9WGY9). Kind of data set: Fluorescence-detected assay of inhibition of Mycobacterium tuberculosis RNA polymerase. The class given is biochemical. The settings on record: read-out: RNAP-inhibitory activity M. tuberculosis RNAP IC50. How it is done: as §1
Fluorescence-detected RNA polymerase assays with M. tuberculosis RNA polymerase were performed as in Example 17.1, using reaction mixtures containing (20 μl): 0-100 nM test salt, 75 nM M. tuberculosis RNA polymerase core enzyme, 300 nM M. tuberculosis σ^A, 20 nM 384 bp DNA fragment containing the bacteriophage T4 N25 promoter, 100 μM ATP, 100 μM GTP, 100 μM UTP, 100 μM CTP, 40 mM Tris-HCl, pH 8.0, 80 mM NaCl, 5 mM MgCl2, 2.5 mM DTT, and 12.7% glycerol. IC50 is defined as the concentration of inhibitor resulting in 50% inhibition of RNA polymerase activity.
As to `[2H]C([2H])([2H])OC(=O)N/C=C/CCCc1cc(O)c(C(=O)/C(C)=C/c2cnc(Oc3ccc(F)cc3)s2)c(=O)o1` [Example 8], the negative logarithm of the IC50 (pIC50) was 7.70.
On the same count and under the same terms, to `[2H]C([2H])([2H])OC(=O)N/C=C/CCCc1cc([O-])c(C(=O)/C(C)=C/c2cnc(Oc3ccc(F)cc3)s2)c(=O)o1.[Na+]` [Example 9] belongs 7.52.

The target of another data set is S. aureus RNA polymerase (Staphylococcus aureus (strain NCTC 8325 / PS 47), UniProt P47768+Q2G0N5). Kind of data set: Fluorescence-detected assay of inhibition of Staphylococcus aureus RNA polymerase. The class given is biochemical. The settings on record: read-out: RNAP-inhibitory activity S. aureus RNAP IC50. How it is done:
as §1
Fluorescence-detected RNA polymerase assays with S. aureus RNA polymerase were performed as in Example 17.1, using reaction mixtures containing (20 μl): 0-100 nM test salt, 75 nM S. aureus RNA polymerase core enzyme, 300 nM S. aureus σ^A, 20 nM 384 bp DNA fragment containing the bacteriophage T4 N25 promoter, 100 μM ATP, 100 μM GTP, 100 μM UTP, 100 μM CTP, 40 mM Tris-HCl, pH 8.0, 80 mM NaCl, 5 mM MgCl2, 2.5 mM DTT, and 12.7% glycerol. IC50 is defined as the concentration of inhibitor resulting in 50% inhibition of RNA polymerase activity.
Turning to `[2H]C([2H])([2H])OC(=O)N/C=C/CCCc1cc(O)c(C(=O)/C(C)=C/c2cnc(Oc3ccc(F)cc3)s2)c(=O)o1` [Example 8], the pIC50 was 7.22.
Regarding `[2H]C([2H])([2H])OC(=O)N/C=C/CCCc1cc([O-])c(C(=O)/C(C)=C/c2cnc(Oc3ccc(F)cc3)s2)c(=O)o1.[Na+]` [Example 9], the pIC50 is 7.52.

For another data set, the system named is Staphylococcus aureus ATCC 12600. Kind of data set: Inhibition of bacterial growth, spiral gradient endpoint assay, S. aureus. The following applies: ATCC12600, read-out: in vitro antibacterial activity S. aureus ATCC12600 MIC. The class given is cell-based. From the text:
(§2) Minimum inhibitory concentrations (MICs) for Staphylococcus aureus ATCC 12600 and Escherichia coli D21f2tolC were quantified using spiral gradient endpoint assays, essentially as described [Wallace, A. and Corkill, J. (1989) Application of the spiral plating method to study antimicrobial action. J. Microbiol. Meths. 10, 303-310; Paton, J., Holt, A., and Bywater, M. (1990) Measurement of MICs of antibacterial agents by spiral gradient endpoint compared with conventional dilution methods. Int. J. Exp. Clin. Chemother. 3, 31-38; Schalkowsky S. (1994) Measures of susceptibility from a spiral gradient of drug concentrations. Adv. Exp. Med. Biol. 349, 107-120]. Assays employed exponential-gradient plates containing 150 mm×4 mm Mueller-Hinton II cation-adjusted agar and 0.4-100 μg/ml of test salt. Plates were prepared using an Autoplate 4000 spiral plater (Spiral Biotech, Inc.). Saturated overnight cultures were swabbed radially onto plates, and plates were incubated for 16 h at 37° C. For each culture, the streak length was measured using a clear plastic template (Spiral Biotech, Inc.), the test-salt concentration at the streak endpoint was calculated using the program SGE (Spiral Biotech, Inc.), and the MIC was defined as the calculated test-salt concentration at the streak endpoint.
As a reminder, the MIC is the lowest concentration found to suppress growth. As for `[2H]C([2H])([2H])OC(=O)N/C=C/CCCc1cc(O)c(C(=O)/C(C)=C/c2cnc(Oc3ccc(F)cc3)s2)c(=O)o1` [Example 8], the MIC turned out to be 0.3 mg/L (≈ 0.58 µM).
For `[2H]C([2H])([2H])OC(=O)N/C=C/CCCc1cc([O-])c(C(=O)/C(C)=C/c2cnc(Oc3ccc(F)cc3)s2)c(=O)o1.[Na+]` [Example 9], the MIC is 0.4 mg/L.
Still for that read-out and setting: to `[2H]C([2H])([2H])OC(=O)N/C=C/CCCc1cc([O-])c(C(=O)/C(C)=C/c2cnc(Oc3ccc(F)cc3)s2)c(=O)o1.[K+]` [Example 10] belongs 0.2 mg/L.

For the next data set, the system named is Escherichia coli D21f2tolC. In words: Inhibition of bacterial growth, spiral gradient endpoint assay, E. coli. The class given is cell-based. The settings on record: read-out: in vitro antibacterial activity E. coli D21f2tolC MIC.
Source text: as §2
As for `[2H]C([2H])([2H])OC(=O)N/C=C/CCCc1cc(O)c(C(=O)/C(C)=C/c2cnc(Oc3ccc(F)cc3)s2)c(=O)o1` [Example 8], the minimum inhibitory concentration (MIC) was 0.06 mg/L (≈ 0.116 µM).
On the same count and under the same terms, to `[2H]C([2H])([2H])OC(=O)N/C=C/CCCc1cc([O-])c(C(=O)/C(C)=C/c2cnc(Oc3ccc(F)cc3)s2)c(=O)o1.[Na+]` [Example 9] belongs 0.04 mg/L; to `[2H]C([2H])([2H])OC(=O)N/C=C/CCCc1cc([O-])c(C(=O)/C(C)=C/c2cnc(Oc3ccc(F)cc3)s2)c(=O)o1.[K+]` [Example 10], 0.03 mg/L.

Another data set deals with Mycobacterium tuberculosis H37Rv. In words: Inhibition of bacterial growth, microplate Alamar Blue assay, M. tuberculosis. The class given is cell-based. The settings on record: read-out: in vitro antibacterial activity M. tuberculosis H37Rv MIC.
Turning to `[2H]C([2H])([2H])OC(=O)N/C=C/CCCc1cc(O)c(C(=O)/C(C)=C/c2cnc(Oc3ccc(F)cc3)s2)c(=O)o1` [Example 8], the minimal inhibitory concentration (MIC) was found to be 0.8 mg/L (≈ 1.55 µM).
On the same count and under the same terms, to `[2H]C([2H])([2H])OC(=O)N/C=C/CCCc1cc([O-])c(C(=O)/C(C)=C/c2cnc(Oc3ccc(F)cc3)s2)c(=O)o1.[Na+]` [Example 9] belongs 0.4 mg/L.
